This is an account of results in patent publication US10800791B2, “Triazole ACC inhibitors and uses thereof” (Gilead Apollo, LLC, priority 2015, dated 2020).

As usually defined, the IC50 is the concentration needed to halve the response being measured.

SMILES strings stand for the structures. In brackets after ≈: the same amount, converted by molar mass. Where two headings read alike, the source gives them in different places. A value given as a limit tells only on which side of the number the result lay.

Experiment [1] deals with Phytophthora capsici (Pc). Kind of experiment: Growth inhibition assay of fungal pathogens, Pc. Conditions: 48 h. The class given is cell-based. Put shortly: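 Spore suspension in 17% V8 liquid media; cpd final 50/10/2 or 2/0.4/0.08 ppm, 2% DMSO. OD600 + visual, 24 & 48 h; % inhibition at 48 h vs 2% DMSO ctrl.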
The next experiment concerns the target human (hACC2) (Homo sapiens, UniProt O00763). The experiment is described as follows: In vitro ACC inhibition assay (ADP-Glo), hACC2. Format: biochemical. Conditions: 5 nM ACC2, 20 μM ATP, 20 μM acetyl-CoA. The protocol:
The detailed procedure is as follows. […] 10 μL ADP glo reagent was added. […] 20 μL kinase detection reagent was added.
Background: ADP-Glo first removes unused ATP, then detects ADP through luciferase.

Where [2] appears, read: growth inhibition at 48 hours vs 2% DMSO control, read-out: Concentration at 90% Inhibition Pc.
Setting [3] is: growth inhibition vs 2% DMSO control at 48 hours, read-out: Concentration at 90% Inhibition Pc.
[4] abbreviates: read-out: Concentration at 90% Inhibition Pc, Phytophthora capsici, growth inhibition at 48 hours vs 2% DMSO control.
The mark [5] stands for this setting: read-out: Concentration at 90% Inhibition Pc, Phytophthora capsici, growth inhibition vs 2% DMSO control at 48 hours.

human (hACC2), sequence (O00763 whole entry): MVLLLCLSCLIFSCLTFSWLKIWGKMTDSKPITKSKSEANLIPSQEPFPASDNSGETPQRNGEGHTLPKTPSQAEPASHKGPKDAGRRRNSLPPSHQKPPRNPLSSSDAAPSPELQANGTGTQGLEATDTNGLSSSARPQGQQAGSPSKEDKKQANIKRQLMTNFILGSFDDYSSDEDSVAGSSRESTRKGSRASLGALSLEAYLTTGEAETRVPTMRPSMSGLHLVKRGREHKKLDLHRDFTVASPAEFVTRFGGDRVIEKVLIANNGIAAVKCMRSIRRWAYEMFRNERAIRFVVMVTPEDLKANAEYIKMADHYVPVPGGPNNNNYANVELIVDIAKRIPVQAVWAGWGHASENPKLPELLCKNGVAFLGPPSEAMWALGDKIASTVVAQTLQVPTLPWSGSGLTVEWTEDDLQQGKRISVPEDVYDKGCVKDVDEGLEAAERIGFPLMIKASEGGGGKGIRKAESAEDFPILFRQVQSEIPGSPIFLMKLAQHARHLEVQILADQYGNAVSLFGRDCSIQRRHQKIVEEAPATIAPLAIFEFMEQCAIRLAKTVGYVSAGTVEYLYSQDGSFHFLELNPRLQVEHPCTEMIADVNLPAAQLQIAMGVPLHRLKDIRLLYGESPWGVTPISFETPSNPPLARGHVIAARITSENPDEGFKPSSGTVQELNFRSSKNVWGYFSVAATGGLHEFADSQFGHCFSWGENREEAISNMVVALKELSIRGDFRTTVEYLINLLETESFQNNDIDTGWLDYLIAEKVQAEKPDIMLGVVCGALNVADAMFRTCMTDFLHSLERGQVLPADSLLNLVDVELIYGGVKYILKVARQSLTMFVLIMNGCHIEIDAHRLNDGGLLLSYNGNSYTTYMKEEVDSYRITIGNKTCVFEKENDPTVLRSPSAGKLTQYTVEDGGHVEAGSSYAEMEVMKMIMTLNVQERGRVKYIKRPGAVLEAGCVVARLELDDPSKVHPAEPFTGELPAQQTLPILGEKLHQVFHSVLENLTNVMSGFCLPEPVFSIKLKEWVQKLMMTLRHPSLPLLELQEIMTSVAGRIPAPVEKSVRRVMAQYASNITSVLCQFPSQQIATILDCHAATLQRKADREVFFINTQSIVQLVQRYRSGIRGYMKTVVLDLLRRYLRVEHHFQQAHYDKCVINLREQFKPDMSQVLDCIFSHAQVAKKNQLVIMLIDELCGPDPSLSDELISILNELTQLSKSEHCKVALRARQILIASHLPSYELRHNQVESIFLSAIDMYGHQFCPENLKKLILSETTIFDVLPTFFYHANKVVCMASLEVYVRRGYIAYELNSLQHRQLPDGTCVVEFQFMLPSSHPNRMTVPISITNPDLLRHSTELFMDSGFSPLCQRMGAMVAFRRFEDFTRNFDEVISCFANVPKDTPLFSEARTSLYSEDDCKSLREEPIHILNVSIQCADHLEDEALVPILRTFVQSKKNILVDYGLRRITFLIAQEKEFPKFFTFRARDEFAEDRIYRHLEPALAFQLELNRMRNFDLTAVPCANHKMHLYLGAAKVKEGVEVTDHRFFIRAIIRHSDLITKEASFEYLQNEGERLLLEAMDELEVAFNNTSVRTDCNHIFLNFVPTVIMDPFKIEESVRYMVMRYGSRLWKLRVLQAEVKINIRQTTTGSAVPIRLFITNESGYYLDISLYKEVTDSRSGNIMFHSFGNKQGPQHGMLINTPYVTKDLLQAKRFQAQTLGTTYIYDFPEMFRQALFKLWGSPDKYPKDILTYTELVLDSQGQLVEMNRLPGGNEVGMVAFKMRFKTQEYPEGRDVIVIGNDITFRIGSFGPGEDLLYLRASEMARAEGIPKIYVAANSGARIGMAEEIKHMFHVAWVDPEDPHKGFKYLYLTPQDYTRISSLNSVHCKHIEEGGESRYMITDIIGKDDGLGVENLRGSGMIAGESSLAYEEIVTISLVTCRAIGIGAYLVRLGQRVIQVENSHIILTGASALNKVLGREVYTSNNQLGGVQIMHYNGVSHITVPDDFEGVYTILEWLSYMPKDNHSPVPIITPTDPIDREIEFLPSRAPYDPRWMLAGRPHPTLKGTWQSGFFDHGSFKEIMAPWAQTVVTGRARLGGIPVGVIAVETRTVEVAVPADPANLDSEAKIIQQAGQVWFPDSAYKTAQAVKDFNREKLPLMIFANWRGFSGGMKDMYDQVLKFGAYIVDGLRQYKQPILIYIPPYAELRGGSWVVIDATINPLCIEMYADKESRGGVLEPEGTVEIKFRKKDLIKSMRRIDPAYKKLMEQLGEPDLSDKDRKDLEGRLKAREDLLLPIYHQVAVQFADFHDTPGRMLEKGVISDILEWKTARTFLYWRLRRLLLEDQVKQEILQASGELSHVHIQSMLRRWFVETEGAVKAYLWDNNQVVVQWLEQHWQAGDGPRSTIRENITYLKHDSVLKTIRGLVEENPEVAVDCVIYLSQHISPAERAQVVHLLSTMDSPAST

Turning to `COc1ccc(F)cc1[C@H](Cn1c(=O)n(C(C)(C)C(N)=O)c(=O)c2c(C)c(-n3nccn3)sc21)OC1CCOCC1` [Compound I-1], the figures for the IC90 in experiment [1] (setting [2]) and in experiment [1] (setting [3]) were 10 mg/L (≈ 17 µM) and more than 50 mg/L, respectively. Moreover, the IC50 on human (hACC2) (Table 2a) fell in the range of 0.005 to 0.01 µM; against human (hACC2) (Table 2b, additional results) it was 0.005 to 0.01 µM.

Regarding `COc1ccc(F)cc1[C@H](Cn1c(=O)n(C(C)(C)C(N)=O)c(=O)c2c(C)c(-n3nccn3)sc21)OC(C)C` [Compound I-2, (R)-2-(1-(2-(5-fluoro-2-methoxyphenyl)-2-isopropoxyethyl)-5-methyl-2,4-dioxo-6-(2H-1,2,3-triazol-2-yl)-1,4-dihydrothieno[2,3-d]pyrimidin-3(2H)-yl)-2-methylpropanamide], the IC90 in experiment [1] (setting [2]) and in experiment [1] (setting [3]) was more than 50 mg/L throughout. Besides, the IC50 fell in the range of 0.001 to 0.005 µM against human (hACC2) (Table 2a) and 0.001 to 0.005 µM on human (hACC2) (Table 2b, additional results).

For the molecule `CCNC(=O)C(C)(C)n1c(=O)c2c(C)c(-n3nccn3)sc2n(C[C@H](OC(C)C)c2cc(F)ccc2OC)c1=O` [Compound I-3, (R)—N-ethyl-2-(1-(2-(5-fluoro-2-methoxyphenyl)-2-isopropoxyethyl)-5-methyl-2,4-dioxo-6-(2H-1,2,3-triazol-2-yl)-1,4-dihydrothieno[2,3-d]pyrimidin-3(2H)-yl)-2-methylpropanamide], the IC90 in experiment [1] (setting [4]) and in experiment [1] (setting [5]) was more than 50 mg/L each time. The concentration for half-maximal inhibition (IC50) was 0.005 to 0.01 µM on human (hACC2) (Table 2a) and 0.005 to 0.01 µM on human (hACC2) (Table 2b, additional results).

Turning to `COc1ccc(F)cc1[C@H](Cn1c(=O)n(C(C)(C)C(=O)NC(C)C)c(=O)c2c(C)c(-n3nccn3)sc21)OC(C)C` [Compound I-4, (R)-2-(1-(2-(5-fluoro-2-methoxyphenyl)-2-isopropoxyethyl)-5-methyl-2,4-dioxo-6-(2H-1,2,3-triazol-2-yl)-1,4-dihydrothieno[2,3-d]pyrimidin-3(2H)-yl)-N-isopropyl-2-methylpropanamide], the IC90 in experiment [1] (setting [4]) and in experiment [1] (setting [5]) was more than 50 mg/L throughout. Besides, the IC50 at human (hACC2) (Table 2a) was 0.005 to 0.01 µM; at human (hACC2) (Table 2b, additional results) it was 0.005 to 0.01 µM.

As for `COc1ccc(F)cc1[C@H](Cn1c(=O)n(C(C)(C)C(=O)N2CCOCC2)c(=O)c2c(C)c(-n3nccn3)sc21)OC(C)C` [Compound I-5, (R)-1-(2-(5-fluoro-2-methoxyphenyl)-2-isopropoxyethyl)-5-methyl-3-(2-methyl-1-morpholino-1-oxopropan-2-yl)-6-(2H-1,2,3-triazol-2-yl)thieno[2,3-d]pyrimidine-2,4(1H,3H)-dione], the IC90 in experiment [1] (setting [4]) and in experiment [1] (setting [5]) was more than 50 mg/L throughout. In addition, the 50% inhibitory concentration (IC50) at human (hACC2) (Table 2a) fell in the range of 0.01 to 0.04 µM; against human (hACC2) (Table 2b, additional results) it was 0.01 to 0.04 µM.

As for `COc1ccc(F)cc1[C@H](Cn1c(=O)n(C(C)(C)C(=O)N2CCCCC2)c(=O)c2c(C)c(-n3nccn3)sc21)OC(C)C` [Compound I-6, (R)-1-(2-(5-fluoro-2-methoxyphenyl)-2-isopropoxyethyl)-5-methyl-3-(2-methyl-1-oxo-1-(piperidin-1-yl)propan-2-yl)-6-(2H-1,2,3-triazol-2-yl)thieno[2,3-d]pyrimidine-2,4(1H,3H)-dione], the IC90 in experiment [1] (setting [4]) and in experiment [1] (setting [5]) was more than 50 mg/L throughout. In addition, the 50% inhibitory concentration (IC50) against human (hACC2) (Table 2a) is 0.01 to 0.04 µM; against human (hACC2) (Table 2b, additional results), 0.01 to 0.04 µM.

As to `COc1ccc(F)cc1[C@H](Cn1c(=O)n(C(C)(C)C(=O)N2CCCC2)c(=O)c2c(C)c(-n3nccn3)sc21)OC(C)C` [Compound I-7, (R)-1-(2-(5-fluoro-2-methoxyphenyl)-2-isopropoxyethyl)-5-methyl-3-(2-methyl-1-oxo-1-(pyrrolidin-1-yl)propan-2-yl)-6-(2H-1,2,3-triazol-2-yl)thieno[2,3-d]pyrimidine-2,4(1H,3H)-dione], the IC90 in experiment [1] (setting [2]) and in experiment [1] (setting [3]) was more than 50 mg/L throughout. In addition, the half-maximal inhibitory concentration (IC50) was in the range of 0.005 to 0.01 µM on human (hACC2) (Table 2a) and 0.005 to 0.01 µM against human (hACC2) (Table 2b, additional results).
